The IC50 is the point on the concentration scale where inhibition reaches its midpoint.

The target in data set [1] is electrophorus electricus AChE (Electrophorus electricus, UniProt O42275). Kind of data set: AChE inhibition, Ellman's method. The data set is classed as biochemical. The settings on record: for AChE (I %): inhibition at 50 µM; for inhibition at 50 µM: read-out: AChE (I %). As to the method:
The potential effects of the synthesized compounds 4a–4i and 5a–5i on AChE and BChE were performed using electrophorus electricus AChE and equine serum BChE due to their low cost and high degree of similarity with their respective human enzymes. For the first screenings, they are excellent and widely used in vitro models.
AChE (EC EC 3.1.1.7) from electrophorus electricus and equine serum BChE (EC 3.1.1.8) were used for the inhibitory assays. ChE inhibitory activity was evaluated using Ellman’s method, as previously described, with slight modifications. The reaction mixture was prepared by dissolving acetylthiocholine iodide (1.5 mM), 5,5’-dithiobis-2-nitrobenzoate (DTNB) (1.5 mM) and the inhibitor (at the desired concentrations) or DMSO alone (control) in 0.1 M phosphate buffer (pH 8.0) to a final volume of 200 µL. The enzyme was added to the reaction mixture and the absorbance was monitored at 405 nm as soon as it was added. This test is based on the AChE enzyme hydrolyzing acetylthiocholine to produce acetate and thiocholine. Thiocholine reacts with DTNB to produce a yellow-colored anion. For the BChE assay, we followed the same procedures as above but used BChE as the enzyme and S-butyrylthiocholine chloride (BTCI) as the substrate. […] Galantamine is considered as a positive control under the same experimental conditions.
A general note: Ellman's reagent forms a yellow product with free thiols.

The target in a further data set is T1, equine serum BChE (Equus caballus, UniProt P81908).
T1 construct: from tissue; host or cells: equine serum
T1 sequence (P81908 whole entry): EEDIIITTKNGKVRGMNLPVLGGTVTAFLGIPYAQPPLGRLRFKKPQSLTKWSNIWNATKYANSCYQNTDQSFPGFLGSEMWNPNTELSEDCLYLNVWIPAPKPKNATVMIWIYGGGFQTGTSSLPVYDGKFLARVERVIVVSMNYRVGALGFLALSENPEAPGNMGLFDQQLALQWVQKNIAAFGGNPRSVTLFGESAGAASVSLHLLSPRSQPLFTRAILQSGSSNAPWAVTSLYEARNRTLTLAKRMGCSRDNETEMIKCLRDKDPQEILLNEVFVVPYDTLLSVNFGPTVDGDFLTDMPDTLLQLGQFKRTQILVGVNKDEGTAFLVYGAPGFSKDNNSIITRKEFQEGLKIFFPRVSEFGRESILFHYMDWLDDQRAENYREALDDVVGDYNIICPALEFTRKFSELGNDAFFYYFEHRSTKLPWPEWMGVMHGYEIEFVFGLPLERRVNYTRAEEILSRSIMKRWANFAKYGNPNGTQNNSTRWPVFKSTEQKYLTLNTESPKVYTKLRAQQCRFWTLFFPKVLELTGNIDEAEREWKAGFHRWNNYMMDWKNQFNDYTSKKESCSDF
Put plainly: biochemical. To be noted: for BChE (I %): inhibition at 50 µM; for inhibition at 50 µM: read-out: BChE (I %). As to the method:
AChE (EC EC 3.1.1.7) from electrophorus electricus and equine serum BChE (EC 3.1.1.8) were used for the inhibitory assays. ChE inhibitory activity was evaluated using Ellman’s method, as previously described, with slight modifications. The reaction mixture was prepared by dissolving acetylthiocholine iodide (1.5 mM), 5,5’-dithiobis-2-nitrobenzoate (DTNB) (1.5 mM) and the inhibitor (at the desired concentrations) or DMSO alone (control) in 0.1 M phosphate buffer (pH 8.0) to a final volume of 200 µL. The enzyme was added to the reaction mixture and the absorbance was monitored at 405 nm as soon as it was added. This test is based on the AChE enzyme hydrolyzing acetylthiocholine to produce acetate and thiocholine. Thiocholine reacts with DTNB to produce a yellow-colored anion. For the BChE assay, we followed the same procedures as above but used BChE as the enzyme and S-butyrylthiocholine chloride (BTCI) as the substrate.

The nature of the next data set: Solubility in DMSO. The data set is classed as physicochemical.
In a further data set the test system is SH-SY5Y cells. Put plainly: Cell viability, MTT assay. The data set is classed as cell-based. The settings on record: 24 h, at IC50 concentrations. As to the method: Therefore, their impact on the viability of SH-SY5Y cells (neuroblastoma cell line) has been studied. For cell viability experiments, the compounds were tested at different concentrations (0, 30, 50, 100 and 200 μM) for 24 h and analyzed using the MTT test.
Human neuroblastoma cell line SH-SY5Y was obtained from ICLC Cell bank (cat. # HTL95013). The cells were cultured in high-glucose DMEM supplemented with 10% fetal bovine serum, 100 units/mL of penicillin and 100 µg/mL of streptomycin (all from Gibco, Life sciences; Thermo Fisher Scientific, Waltham, MA, USA) and maintained at 37 °C in a humidified atmosphere of 5% CO2 and 95% air. Cell viability was detected by the colorimetric 3-(4,5 dimethylthiazol-2-yl)-2,5-diphenyltetrazolium bromide (MTT) assay, as previously described, with minor modifications. Briefly, 1.5 × 10^4 cells/well were seeded in 96-well plates and incubated for 24 h with different concentrations (30–200 μM) of compounds. After incubation, 100 μL of the MTT reagent (0.5 mg/mL in DMEM) was added, and the cells were incubated for 3 h at 37 °C. The resulting violet formazan precipitate was dissolved in DMSO and quantified by spectrophotometry at 570 nm using a microplate reader (VANTAstar_BMG LABTECH GmbH, Offenburg, Germany). Viability data were reported in the percentage of control for each compound.
(In general: Tetrazolium dyes change colour on reduction, which living cells bring about.)

electrophorus electricus AChE, sequence (O42275 24-633): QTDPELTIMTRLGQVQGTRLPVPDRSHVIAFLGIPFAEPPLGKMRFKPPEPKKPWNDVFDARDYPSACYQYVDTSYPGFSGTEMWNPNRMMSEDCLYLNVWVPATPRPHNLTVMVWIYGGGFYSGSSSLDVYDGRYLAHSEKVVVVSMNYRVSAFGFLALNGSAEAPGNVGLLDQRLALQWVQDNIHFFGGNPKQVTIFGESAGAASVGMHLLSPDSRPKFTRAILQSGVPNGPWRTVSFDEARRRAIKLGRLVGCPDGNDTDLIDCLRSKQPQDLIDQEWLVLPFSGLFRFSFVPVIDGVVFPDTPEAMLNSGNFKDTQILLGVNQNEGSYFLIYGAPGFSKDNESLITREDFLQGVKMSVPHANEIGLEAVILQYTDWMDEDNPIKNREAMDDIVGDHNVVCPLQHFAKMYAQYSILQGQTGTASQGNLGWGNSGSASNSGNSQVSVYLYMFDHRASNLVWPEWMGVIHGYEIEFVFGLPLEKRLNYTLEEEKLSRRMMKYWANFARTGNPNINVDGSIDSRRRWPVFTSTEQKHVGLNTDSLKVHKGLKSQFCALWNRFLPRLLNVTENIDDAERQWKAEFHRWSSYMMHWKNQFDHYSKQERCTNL

`c1ccc(-c2cc3ccccc3s2)cc1` [Compound 4a, 2-Phenylbenzothiophene]: the “AChE (I %)” value in data set [1] was “Ins”. Further, the “BChE (I %)” value on equine serum BChE is on record as “Ins”. Moreover, the “solubility in dimethyl sulfoxide (DMSO)” value in the data set “Solubility in DMSO” is “insoluble”.

On to `O=[N+]([O-])c1ccc(-c2cc3ccccc3s2)cc1` [Compound 4b, 2-(4-Nitrophenyl)benzothiophene], for which the inhibition at 50 µM was 8.2% in data set [1] and 2.29% on equine serum BChE.

As to `COc1ccc(-c2cc3ccccc3s2)cc1` [Compound 4c, 2-(4-Methoxyphenyl)benzothiophene], the inhibition at 50 µM in data set [1] is 9.6%; at equine serum BChE, 1.2%.

As for `N#Cc1ccc(-c2cc3ccccc3s2)cc1` [Compound 4d, 4-(Benzothiophene-2-yl)benzonitrile], the “AChE (I %)” value in data set [1] is recorded as “Ins”. For the same compound, the “BChE (I %)” value on equine serum BChE is recorded as “Ins”. The “solubility in dimethyl sulfoxide (DMSO)” value in “Solubility in DMSO” is reported as “insoluble”.

`FC(F)(F)c1ccc(-c2cc3ccccc3s2)cc1` [Compound 4e, 2-(4-Trifluoromethylphenyl)benzothiophene]: in data set [1], the “AChE (I %)” value is on record as “Ins”. In addition, the “BChE (I %)” value on equine serum BChE is given as “Ins”. Also, the “solubility in dimethyl sulfoxide (DMSO)” value in the data set “Solubility in DMSO” is listed as “insoluble”.

Regarding `Clc1ccc(-c2cc3ccccc3s2)cc1` [Compound 4f, 2-(4-Chlorophenyl)benzothiophene], the “AChE (I %)” value in data set [1] is “Ins”. In addition, the “BChE (I %)” value on equine serum BChE was “Ins”. In addition, in the data set “Solubility in DMSO”, the “solubility in dimethyl sulfoxide (DMSO)” value is reported as “insoluble”.

On to `Cc1ccc(-c2cc3ccccc3s2)cc1` [Compound 4g, 2-(4-Methylphenyl)benzothiophene], for which the “AChE (I %)” value in data set [1] is “Ins”. Besides, the “BChE (I %)” value at equine serum BChE is given as “Ins”. The “solubility in dimethyl sulfoxide (DMSO)” value in the data set “Solubility in DMSO” was “insoluble”.

Regarding `Nc1ccc(-c2cc3ccccc3s2)cc1` [Compound 4h, 2-(4-aminophenyl)benzothiophene], the inhibition at 50 µM on equine serum BChE worked out at 10.2%.

With `Oc1ccc(-c2cc3ccccc3s2)cc1` [Compound 4i, 2-(4-hydroxyphenyl)benzothiophene], the inhibition at 50 µM was found to be 8.19% in data set [1] and 13.6% at equine serum BChE.

For `O=C(c1ccccc1)c1c(-c2ccccc2)sc2ccccc12` [Compound 5a, 3-Benzoyl-2-phenylbenzothiophene], the inhibition at 50 µM in data set [1] stood at 20.8%. In addition, on equine serum BChE, half-maximal inhibition (IC50) was put at 83.4 ± 1.2 µM and the inhibition at 50 µM was 35.7%. For the same compound, in the data set on SH-SY5Y cells, the “cytotoxic effects on cell viability” value is reported as “no cytotoxic effects”.

Consider `O=C(c1ccc([N+](=O)[O-])cc1)c1c(-c2ccc([N+](=O)[O-])cc2)sc2ccccc12` [Compound 5b, 3-(4-Nitrobenzoyl)-2-(4-nitrophenyl)benzothiophene], for which the inhibition at 50 µM in data set [1] worked out at 11%; on equine serum BChE it was 16.8%.

For `COc1ccc(C(=O)c2c(-c3ccc(OC)cc3)sc3ccccc23)cc1` [Compound 5c, 3-(4-Methoxybenzoyl)-2-(4-methoxyphenyl)benzothiophene], the figures for the inhibition at 50 µM (in data set [1]; on equine serum BChE) were 3.5% and 11.9%, respectively.

Regarding `N#Cc1ccc(C(=O)c2c(-c3ccc(C#N)cc3)sc3ccccc23)cc1` [Compound 5d, 4-Cianophenyl-[2-(4-cianophenyl)-benzothiophen-3-yl]-methanone], the inhibition at 50 µM in data set [1] amounted to 4.5%; at equine serum BChE, 14%.

For `O=C(c1ccc(C(F)(F)F)cc1)c1c(-c2ccc(C(F)(F)F)cc2)sc2ccccc12` [Compound 5e, 3-(4-Trifluoromethylbenzoyl)-2-(4-trifluoromethylphenil)benzothiophene], the inhibition at 50 µM in data set [1] is 10%; at equine serum BChE, 3.1%.

Regarding `O=C(c1ccc(Cl)cc1)c1c(-c2ccc(Cl)cc2)sc2ccccc12` [Compound 5f, 3-(4-Chlorobenzoyl)-2-(4-chlorophenyl)benzothiophene], in data set [1], the IC50 was 62.1 ± 1.2 µM and the inhibition at 50 µM is 39.9%. Also, the inhibition at 50 µM on equine serum BChE stood at 23.1%. In the data set with SH-SY5Y cells, the “cytotoxic effects on cell viability” value was “no cytotoxic effects”.

With `Cc1ccc(C(=O)c2c(-c3ccc(C)cc3)sc3ccccc23)cc1` [Compound 5g, 3-(4-Methylbenzoyl)-2-(4-methylphenyl)benzothiophene], the inhibition at 50 µM in data set [1] was determined as 28.3%; at equine serum BChE, 13.1%.

Take `Nc1ccc(C(=O)c2c(-c3ccc(N)cc3)sc3ccccc23)cc1` [Compound 5h, 3-(4-aminobenzoyl)-2-(4-aminophenyl)benzothiophene]: on equine serum BChE, the 50% inhibitory concentration (IC50) turned out to be 24.3 ± 0.5 µM and the inhibition at 50 µM is 58.3%. For the same compound, the “cytotoxic effects on cell viability” value in the data set with SH-SY5Y cells was “no cytotoxic effects”.

Turning to `O=C(c1ccc(O)cc1)c1c(-c2ccc(O)cc2)sc2ccccc12` [Compound 5i, 3-(4-hydroxybenzoyl)-2-(4-hydroxyphenyl)benzothiophene], the values for the inhibition at 50 µM (in data set [1]; at equine serum BChE) were 19.3% and 42.2%, respectively. This compound yielded a half-maximal inhibitory concentration (IC50) at equine serum BChE of 59.6 ± 11.6 µM. Besides, in the data set on SH-SY5Y cells, the “cytotoxic effects on cell viability” value is “no cytotoxic effects”.

(Values after article PMC11356821, “A New Class of Benzo[b]thiophene-chalcones as Cholinesterase Inhibitors: Synthesis, Biological Evaluation, Molecular Docking and ADME Studies” (Molecules, 2024).)
